Species on record: Rattus norvegicus
Assay: DrugMatrix - Regimen: Daily Repeat
Assay type: toxicity, organism-based, Sprague-Dawley
Set-up: regimen Daily Repeat, gender Male, age 6-8 weeks
Details: in vivo, iv, vehicle 100 % SALINE; for URIC ACID / ALANINE AMINOTRANSFERASE / ALBUMIN / ALKALINE PHOSPHATASE / ASPARTATE AMINOTRANSFERASE / BLOOD UREA NITROGEN / CARBON DIOXIDE / CHLORIDE / CHOLESTEROL / CREATINE PHOSPHOKINASE / CREATININE / GLUCOSE / LACTATE DEHYDROGENASE / LIPASE / PHOSPHORUS / POTASSIUM / SODIUM / TOTAL BILIRUBIN / TOTAL PROTEIN: tissue Plasma; for ABSOLUTE BASOPHIL / ABSOLUTE EOSINOPHIL / ABSOLUTE LYMPHOCYTE / ABSOLUTE MONOCYTE / ABSOLUTE SEGMENTED NEUTROPHIL / BASOPHIL / EOSINOPHIL / ERYTHROCYTE COUNT / HEMATOCRIT / HEMOGLOBIN / LEUKOCYTE COUNT / LYMPHOCYTE / MEAN CORPUSCULAR HEMOGLOBIN / MEAN CORPUSCULAR HEMOGLOBIN CONCENTRATION / MEAN CORPUSCULAR VOLUME / MONOCYTE / NEUTROPHIL / NUCLEATED RED BLOOD CELLS / PLATELET COUNT: tissue Blood
[1] = 2 mg/kg, 120 h, dose level Low, time 5 day
[2] = 44 mg/kg, 72 h, dose level High, time 3 day
[3] = 44 mg/kg, 120 h, dose level High, time 5 day

Cc1ccc(N(CC2=NCCN2)c2cccc(O)c2)cc1 [PHENTOLAMINE]
URIC ACID (2 mg/kg, 72 h, dose level Low, time 3 day): 1.4 mg/dL
ABSOLUTE BASOPHIL [1]: 0 CELLS/uL
ABSOLUTE EOSINOPHIL [1]: 0 CELLS/uL
ABSOLUTE LYMPHOCYTE [1]: 13096 CELLS/uL
ABSOLUTE MONOCYTE [1]: 288 CELLS/uL
ABSOLUTE SEGMENTED NEUTROPHIL [1]: 1016 CELLS/uL
BASOPHIL [1]: 0%
EOSINOPHIL [1]: 0%
ERYTHROCYTE COUNT [1]: 6.03 x10E6/uL
HEMATOCRIT [1]: 38.17%
HEMOGLOBIN [1]: 14.2 G/DL
LEUKOCYTE COUNT [1]: 14.4 x10E3/uL
LYMPHOCYTE [1]: 91%
MEAN CORPUSCULAR HEMOGLOBIN [1]: 23.53 pg
MEAN CORPUSCULAR HEMOGLOBIN CONCENTRATION [1]: 37.2 G/DL
MEAN CORPUSCULAR VOLUME [1]: 63.3 fL
MONOCYTE [1]: 2%
NEUTROPHIL [1]: 7%
NUCLEATED RED BLOOD CELLS [1]: 0.67 /100WBC
PLATELET COUNT [1]: 1406 x10E3/uL
ALANINE AMINOTRANSFERASE [1]: 51.67 u/L
ALBUMIN [1]: 4.47 G/DL
ALKALINE PHOSPHATASE [1]: 440 u/L
ASPARTATE AMINOTRANSFERASE [1]: 80 u/L
BLOOD UREA NITROGEN [1]: 16.67 mg/dL
CARBON DIOXIDE [1]: 20.33 mmol/L
CHLORIDE [1]: 102.67 MEQ/L
CHOLESTEROL [1]: 64.33 mg/dL
CREATINE PHOSPHOKINASE [1]: 255.33 u/L
CREATININE [1]: 0.17 mg/dL
GLUCOSE [1]: 170.33 mg/dL
LACTATE DEHYDROGENASE [1]: 112.33 u/L
LIPASE [1]: 10 u/L
PHOSPHORUS [1]: 12.37 mg/dL
POTASSIUM [1]: 6.89 MEQ/L
SODIUM [1]: 145.97 MEQ/L
TOTAL BILIRUBIN [1]: 0.23 mg/dL
URIC ACID [1]: 1.8 mg/dL
ABSOLUTE BASOPHIL [2]: 0 CELLS/uL
ABSOLUTE EOSINOPHIL [2]: 0 CELLS/uL
ABSOLUTE LYMPHOCYTE [2]: 13788 CELLS/uL
ABSOLUTE MONOCYTE [2]: 136.33 CELLS/uL
ABSOLUTE SEGMENTED NEUTROPHIL [2]: 1109 CELLS/uL
BASOPHIL [2]: 0%
EOSINOPHIL [2]: 0%
ERYTHROCYTE COUNT [2]: 5.51 x10E6/uL
HEMATOCRIT [2]: 35.77%
HEMOGLOBIN [2]: 13.13 G/DL
LEUKOCYTE COUNT [2]: 15.03 x10E3/uL
LYMPHOCYTE [2]: 91.33%
MEAN CORPUSCULAR HEMOGLOBIN [2]: 23.9 pg
MEAN CORPUSCULAR HEMOGLOBIN CONCENTRATION [2]: 36.73 G/DL
MEAN CORPUSCULAR VOLUME [2]: 65 fL
MONOCYTE [2]: 1%
NEUTROPHIL [2]: 7.67%
NUCLEATED RED BLOOD CELLS [2]: 0.67 /100WBC
PLATELET COUNT [2]: 1392 x10E3/uL
ALANINE AMINOTRANSFERASE [2]: 54.67 u/L
ALBUMIN [2]: 4.3 G/DL
ALKALINE PHOSPHATASE [2]: 373 u/L
ASPARTATE AMINOTRANSFERASE [2]: 66.67 u/L
BLOOD UREA NITROGEN [2]: 17.33 mg/dL
CARBON DIOXIDE [2]: 20.33 mmol/L
CHLORIDE [2]: 100.67 MEQ/L
CHOLESTEROL [2]: 81.33 mg/dL
CREATINE PHOSPHOKINASE [2]: 188.33 u/L
CREATININE [2]: 0.22 mg/dL
GLUCOSE [2]: 163.67 mg/dL
LACTATE DEHYDROGENASE [2]: 78 u/L
LIPASE [2]: 10.67 u/L
PHOSPHORUS [2]: 10.77 mg/dL
POTASSIUM [2]: 6.6 MEQ/L
SODIUM [2]: 143.67 MEQ/L
TOTAL BILIRUBIN [2]: 0.23 mg/dL
TOTAL PROTEIN [2]: 6.03 G/DL
URIC ACID [2]: 1.53 mg/dL
ABSOLUTE BASOPHIL [3]: 0 CELLS/uL
ABSOLUTE EOSINOPHIL [3]: 0 CELLS/uL
ABSOLUTE LYMPHOCYTE [3]: 13982.67 CELLS/uL
ABSOLUTE MONOCYTE [3]: 349.33 CELLS/uL
ABSOLUTE SEGMENTED NEUTROPHIL [3]: 3068 CELLS/uL
BASOPHIL [3]: 0%
EOSINOPHIL [3]: 0%
ERYTHROCYTE COUNT [3]: 5.76 x10E6/uL
HEMATOCRIT [3]: 36.83%
HEMOGLOBIN [3]: 13.87 G/DL
LEUKOCYTE COUNT [3]: 17.4 x10E3/uL
LYMPHOCYTE [3]: 81.33%
MEAN CORPUSCULAR HEMOGLOBIN [3]: 24.1 pg
MEAN CORPUSCULAR HEMOGLOBIN CONCENTRATION [3]: 37.67 G/DL
MEAN CORPUSCULAR VOLUME [3]: 64.07 fL
MONOCYTE [3]: 2%
NEUTROPHIL [3]: 16.67%
NUCLEATED RED BLOOD CELLS [3]: 0 /100WBC
PLATELET COUNT [3]: 1344.67 x10E3/uL
ALANINE AMINOTRANSFERASE [3]: 54.67 u/L
ALBUMIN [3]: 4.33 G/DL
ALKALINE PHOSPHATASE [3]: 353 u/L
ASPARTATE AMINOTRANSFERASE [3]: 75.67 u/L
BLOOD UREA NITROGEN [3]: 16.33 mg/dL
CARBON DIOXIDE [3]: 29.33 mmol/L
CHLORIDE [3]: 103.33 MEQ/L
CHOLESTEROL [3]: 81 mg/dL
CREATINE PHOSPHOKINASE [3]: 410.67 u/L
CREATININE [3]: 0.19 mg/dL
GLUCOSE [3]: 200.33 mg/dL
LACTATE DEHYDROGENASE [3]: 220.67 u/L
LIPASE [3]: 11 u/L
PHOSPHORUS [3]: 11.43 mg/dL
POTASSIUM [3]: 6.26 MEQ/L
SODIUM [3]: 144.07 MEQ/L
TOTAL BILIRUBIN [3]: 0.17 mg/dL
TOTAL PROTEIN [3]: 6.43 G/DL
URIC ACID [3]: 2.13 mg/dL

Source: ChEMBL document CHEMBL3885881, “DrugMatrix”
